The values below come from US20240025922A1, “TETRAHYDROPYRIDO[3,4-d]PYRIMIDINES AS HPK1 INHIBITORS” (Merck Patent GmbH, priority 2022, published 2024).

The structures appear in SMILES notation. Read-outs that look alike come from different tables or passages of the source.

The target in assay [1] is full-length human HPK1 (MAP4K1) (Homo sapiens (Human), UniProt Q92918). Description: HPK1 Kinase Assay (Biochemical Assay), ADP-Glo. The note with it: GST-HPK1 3.2 nM, 10 μM ATP, MBP substrate, read-out: HPK1 enzymatic IC50. In short, it runs like this: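 GST-tagged full-length human HPK1 was expressed in Sf21 cells and used at 3.2 nM in 50 mM HEPES pH 7.5, 10 mM MgCl2, 2 mM DTT, 12.5 mM O-glycerophosphate, 0.01% BSA and 0.02% Brij-35. It was preincubated 15 min with 10-point compound dilutions, and the reaction was started with a start mix of 10 μM ATP and 3.235 μM MBP. After 120 min, ADP was measured by ADP-Glo luminescence and IC50 derived.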
Sequence of full-length human HPK1 (MAP4K1) (Q92918 whole entry): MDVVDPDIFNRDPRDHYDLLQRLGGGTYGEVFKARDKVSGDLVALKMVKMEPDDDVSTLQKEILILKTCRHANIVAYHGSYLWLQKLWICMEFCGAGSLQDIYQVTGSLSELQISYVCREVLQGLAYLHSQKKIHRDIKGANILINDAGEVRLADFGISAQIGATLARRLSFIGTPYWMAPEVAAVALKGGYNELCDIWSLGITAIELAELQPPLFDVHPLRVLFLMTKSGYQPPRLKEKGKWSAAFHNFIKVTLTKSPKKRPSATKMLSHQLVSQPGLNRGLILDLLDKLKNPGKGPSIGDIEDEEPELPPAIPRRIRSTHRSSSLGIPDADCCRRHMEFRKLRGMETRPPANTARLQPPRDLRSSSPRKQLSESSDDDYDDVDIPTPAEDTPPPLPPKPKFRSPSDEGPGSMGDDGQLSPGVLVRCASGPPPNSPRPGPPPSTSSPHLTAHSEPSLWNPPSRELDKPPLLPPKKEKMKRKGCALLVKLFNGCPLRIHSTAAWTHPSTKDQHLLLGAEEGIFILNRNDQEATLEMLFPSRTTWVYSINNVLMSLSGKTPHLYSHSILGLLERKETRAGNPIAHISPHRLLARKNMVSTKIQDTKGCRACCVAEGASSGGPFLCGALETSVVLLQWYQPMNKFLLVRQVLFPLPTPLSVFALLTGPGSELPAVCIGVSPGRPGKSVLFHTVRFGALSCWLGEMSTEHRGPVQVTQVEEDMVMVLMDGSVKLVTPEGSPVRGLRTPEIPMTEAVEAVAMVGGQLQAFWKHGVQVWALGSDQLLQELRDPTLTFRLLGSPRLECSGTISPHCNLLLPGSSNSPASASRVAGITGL
On the technique in general: ADP-Glo first removes unused ATP, then detects ADP through luciferase.

Assay [2] addresses HPK1 (SLP76 phosphorylation at Ser376 in Jurkat and EL-4 cells) (Homo sapiens, UniProt Q92918). It is filed as cell-based. In short, it runs like this:
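Jurkat (human) and EL-4 (mouse) cells, endogenous HPK1/SLP76, preincubated 60 min with compounds (10-point dilution), then stimulated with αCD3/αCD28 beads at 37 °C: 15 min for Jurkat, 30 min for EL-4. Ser376 pSLP76 in lysates read by AlphaLISA (Jurkat) or HTRF (EL-4); % inhibition and IC50 fitted.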

[3] abbreviates: αCD3/αCD28 Dynabeads stimulated cells, pSLP76 (Ser376) detection; read-out: HPK1 pSLP76 IC50.
The mark [4] stands for this setting: read-out: HPK1 pSLP76 IC50; αCD3/αCD28 Dynabeads stimulated cells, pSLP76 (Ser376) detection.

Sequence of HPK1 (SLP76 phosphorylation at Ser376 in Jurkat and EL-4 cells) (Q92918 whole entry, looked up): as the sequence (Q92918 whole entry) above

In general, IC50 refers to the concentration at which inhibition is half-maximal. For the molecule `CNCc1ccc(Nc2ncc3c(n2)CN(c2cnc4c(c2C)NCCO4)CC3)cc1` [Example 53, 7-(8-methyl-2,3-dihydro-1H-pyrido[2,3-b][1,4]oxazin-7-yl)-N-(4-((methylamino)methyl)phenyl)-5,6,7,8-tetrahydropyrido[3,4-d]pyrimidin-2-amine], the IC50 in assay [1] is less than 100 nM; in assay [2] (setting [3]), 500 to 1000 nM.
Taken in the same sequence, the figures for `Cc1c(N2CCc3cnc(Nc4ccc(C5(O)CCN(C)CC5)cc4)cc3C2)cnc2c1NCCO2` [Example 52, 1-methyl-4-(4-((6-(8-methyl-2,3-dihydro-1H-pyrido[2,3-b][1,4]oxazin-7-yl)-5,6,7,8-tetrahydro-2,6-naphthyridin-3-yl)amino)phenyl)piperidin-4-ol] were less than 100 nM and 500 to 1000 nM.
On the same counts, the results for `Cc1c(N2CCc3cnc(Nc4ccc(NC(=O)CN5CCOCC5)c(C(F)(F)F)c4)nc3C2)cnc2c1NCCO2` [Example 29, N-{4-[(7-{8-methyl-1H,2H,3H-pyrido[2,3-b][1,4]oxazin-7-yl}-5H,6H,7H,8H-pyrido[3,4-d]pyrimidin-2-yl)amino]-2-(trifluoromethyl)phenyl}-2-(morpholin-4-yl)acetamide] are less than 100 nM and less than 500 nM.
Taken in the same sequence, the figures for `COCCOCCS(=O)(=O)c1ccc(Nc2ncc3c(n2)CN(c2cnc4c(c2C)NCCO4)CC3)cc1` [Example 147, N-{4-[2-(2-methoxyethoxy)ethanesulfonyl]phenyl}-7-{8-methyl-1H,2H,3H-pyrido[2,3-b][1,4]oxazin-7-yl}-5H,6H,7H,8H-pyrido[3,4-d]pyrimidin-2-amine] were less than 100 nM and less than 500 nM.
For `Cc1c(N2CCc3cnc(Nc4ccc(Cn5cccn5)cc4)nc3C2)cnc2c1NCCO2` [Example 187, 7-{8-methyl-1H,2H,3H-pyrido[2,3-b][1,4]oxazin-7-yl}-N-{4-[(1H-pyrazol-1-yl)methyl]phenyl}-5H,6H,7H,8H-pyrido[3,4-d]pyrimidin-2-amine], the IC50 in assay [1] is less than 100 nM; in assay [2] (setting [3]), less than 500 nM.
Taken in the same sequence, the figures for `Cc1c(N2CCc3cnc(Nc4ccc(N5CCC(O)CC5)c(CC#N)c4)nc3C2)cnc2c1NCCO2` [Example 91, 2-(2-(4-hydroxypiperidin-1-yl)-5-((7-(8-methyl-2,3-dihydro-1H-pyrido[2,3-b][1,4]oxazin-7-yl)-5,6,7,8-tetrahydropyrido[3,4-d]pyrimidin-2-yl)amino)phenyl)acetonitrile] were less than 100 nM and less than 500 nM.
`Cc1c(N2CCc3cnc(Nc4ccc(Cn5ccnc5)cc4)nc3C2)cnc2c1NCCO2` [Example 127, N-{4-[(1H-imidazol-1-yl)methyl]phenyl}-7-{8-methyl-1H,2H,3H-pyrido[2,3-b][1,4]oxazin-7-yl}-5H,6H,7H,8H-pyrido[3,4-d]pyrimidin-2-amine]: the figures for the IC50 in assay [1] and in assay [2] (setting [3]) were less than 100 nM and less than 500 nM, respectively.
On the same counts, the results for `Cc1c(N2CCc3cnc(Nc4ccc(OC[C@@H]5COCCO5)cc4)nc3C2)cnc2c1NCCO2` [Example 90, (S)—N-(4-((1,4-dioxan-2-yl)methoxy)phenyl)-7-(8-methyl-2,3-dihydro-1H-pyrido[2,3-b][1,4]oxazin-7-yl)-5,6,7,8-tetrahydropyrido[3,4-d]pyrimidin-2-amine] are less than 100 nM and 500 to 1000 nM.
Take `Cc1c(N2CCc3cnc(Nc4ccc(C5CCN(C)CC5)cc4)nc3C2)cnc2c1NCCO2` [Example 100, 7-(8-methyl-2,3-dihydro-1H-pyrido[2,3-b][1,4]oxazin-7-yl)-N-(4-(1-methylpiperidin-4-yl)phenyl)-5,6,7,8-tetrahydropyrido[3,4-d]pyrimidin-2-amine]: the IC50 was less than 100 nM in assay [1] and 500 to 1000 nM in assay [2] (setting [3]).
As for `Cc1c(N2CCc3cnc(Nc4cc5n(n4)CC(=O)N(CC(F)F)CC5)cc3C2)cnc2c1NCCO2` [Example 140, 6-(2,2-difluoroethyl)-2-[(6-{8-methyl-1H,2H,3H-pyrido[2,3-b][1,4]oxazin-7-yl}-5,6,7,8-tetrahydro-2,6-naphthyridin-3-yl)amino]-4H,5H,6H,7H,8H-pyrazolo[1,5-d][1,4]diazepin-7-one], the values for the IC50 in assay [1] and in assay [2] (setting [3]) were less than 100 nM and less than 500 nM, respectively.
On the same counts, the results for `CS(=O)(=O)Cc1ccc(Nc2ncc3c(n2)CN(c2cnc4c(c2Cl)NCCO4)CC3)cc1` [Example 63, 7-{8-chloro-1H,2H,3H-pyrido[2,3-b][1,4]oxazin-7-yl}-N-[4-(methanesulfonylmethyl)phenyl]-5H,6H,7H,8H-pyrido[3,4-d]pyrimidin-2-amine] are less than 100 nM and less than 500 nM.
In the case of `Cc1c(N2CCc3cnc(Nc4ccc(C5CCN(C)CC5)c(CC#N)c4)nc3C2)cnc2c1NCCO2` [Example 112, 2-(5-((7-(8-methyl-2,3-dihydro-1H-pyrido[2,3-b][1,4]oxazin-7-yl)-5,6,7,8-tetrahydropyrido[3,4-d]pyrimidin-2-yl)amino)-2-(1-methylpiperidin-4-yl)phenyl)acetonitrile], the IC50 in assay [1] was less than 100 nM; in assay [2] (setting [3]) it was 500 to 1000 nM.
Regarding `Cc1c(N2CCc3cnc(Nc4cccc(N5CCN(C)CC5)c4)nc3C2)cnc2c1NCCO2` [Example 61, 7-{8-methyl-1H,2H,3H-pyrido[2,3-b][1,4]oxazin-7-yl}-N-[3-(4-methylpiperazin-1-yl)phenyl]-5H,6H,7H,8H-pyrido[3,4-d]pyrimidin-2-amine], the half-inhibitory concentration (IC50) in assay [1] is less than 100 nM; in assay [2] (setting [4]), 500 to 1000 nM.
On the same counts, the results for `Cc1c(N2CCc3cnc(Nc4ccc(NC(=O)CN(C)C)nc4)nc3C2)cnc2c1NCCO2` [Example 56, 2-(dimethylamino)-N-(5-((7-(8-methyl-2,3-dihydro-1H-pyrido[2,3-b][1,4]oxazin-7-yl)-5,6,7,8-tetrahydropyrido[3,4-d]pyrimidin-2-yl)amino)pyridin-2-yl)acetamide] are less than 100 nM and less than 500 nM.
For the molecule `Cc1c(N2CCc3cnc(Nc4ccc(CC(=O)N5CC(F)(F)C5)cc4)nc3C2)cnc2c1NCCO2` [Example 151, 1-(3,3-difluoroazetidin-1-yl)-2-{4-[(7-{8-methyl-1H,2H,3H-pyrido[2,3-b][1,4]oxazin-7-yl}-5H,6H,7H,8H-pyrido[3,4-d]pyrimidin-2-yl)amino]phenyl}ethan-1-one], the IC50 is less than 100 nM in assay [1] and less than 500 nM in assay [2] (setting [3]).
Taken in the same sequence, the figures for `COCCN1CCc2cc(Nc3cc4c(cn3)CCN(c3cnc5c(c3C)NCCO5)C4)nn2CC1=O` [Example 153, 6-(2-methoxyethyl)-2-[(6-{8-methyl-1H,2H,3H-pyrido[2,3-b][1,4]oxazin-7-yl}-5,6,7,8-tetrahydro-2,6-naphthyridin-3-yl)amino]-4H,5H,6H,7H,8H-pyrazolo[1,5-d][1,4]diazepin-7-one] were less than 100 nM and less than 500 nM.
Taken in the same sequence, the figures for `Cc1c(N2CCc3cnc(Nc4cnc5c(c4)CNCC5)nc3C2)cnc2c1NCCO2` [Example 108, 7-(8-methyl-2,3-dihydro-1H-pyrido[2,3-b][1,4]oxazin-7-yl)-N-(5,6,7,8-tetrahydro-1,6-naphthyridin-3-yl)-5,6,7,8-tetrahydropyrido[3,4-d]pyrimidin-2-amine] were less than 100 nM and 500 to 1000 nM.
On the same counts, the results for `Cc1cc(Nc2ncc3c(n2)CN(c2cnc4c(c2C)NCCO4)CC3)ccc1C(=O)NCCN1CCOCC1` [Example 39, 2-methyl-4-[(7-{8-methyl-1H,2H,3H-pyrido[2,3-b]oxazin-7-yl}-5H,6H,7H,8H-pyrido[3,4-d]pyrimidin-2-yl)amino]-N-[2-(morpholin-4-yl)ethyl] benzamide] are less than 100 nM and less than 500 nM.
